# Assay results reported in US20230203022A1, “HETEROCYCLE AND GLUTARIMIDE SKELETON-BASED COMPOUND AND APPLICATIONS THEREOF” (Shanghaitech University, priority 2020, published 2023).
# Experiments:
# Type in all cases: cell-based
# IKZF3 = biological target: T1, IKZF3 (Homo sapiens, UniProt Q96SW2+Q9UKT9); assay: Western blotting assay of IKZF3 degradation in MM.1S cells; details: 16 h, Western blot, FIG. 1
# T1 construct: degradation of IKZF1 and IKZF3 proteins caused by the compounds of the present invention in multiple myeloma cells MM.1S; endogenous in cells; host or cells: MM.1S (ATCC)
# T1 sequence (Q9UKT9 whole entry): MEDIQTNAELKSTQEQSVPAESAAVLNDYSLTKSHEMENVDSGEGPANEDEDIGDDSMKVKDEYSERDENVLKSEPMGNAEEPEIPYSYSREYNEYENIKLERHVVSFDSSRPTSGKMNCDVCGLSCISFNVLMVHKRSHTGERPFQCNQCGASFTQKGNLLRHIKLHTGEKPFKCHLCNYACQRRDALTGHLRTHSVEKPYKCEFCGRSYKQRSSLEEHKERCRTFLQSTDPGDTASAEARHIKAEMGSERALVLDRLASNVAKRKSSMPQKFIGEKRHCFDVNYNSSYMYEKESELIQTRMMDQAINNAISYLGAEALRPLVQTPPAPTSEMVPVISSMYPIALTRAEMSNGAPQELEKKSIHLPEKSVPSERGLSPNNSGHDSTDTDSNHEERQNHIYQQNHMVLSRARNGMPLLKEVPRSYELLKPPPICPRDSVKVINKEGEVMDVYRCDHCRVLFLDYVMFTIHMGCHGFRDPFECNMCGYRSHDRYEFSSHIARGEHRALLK
# T1 sequence (Q96SW2 whole entry): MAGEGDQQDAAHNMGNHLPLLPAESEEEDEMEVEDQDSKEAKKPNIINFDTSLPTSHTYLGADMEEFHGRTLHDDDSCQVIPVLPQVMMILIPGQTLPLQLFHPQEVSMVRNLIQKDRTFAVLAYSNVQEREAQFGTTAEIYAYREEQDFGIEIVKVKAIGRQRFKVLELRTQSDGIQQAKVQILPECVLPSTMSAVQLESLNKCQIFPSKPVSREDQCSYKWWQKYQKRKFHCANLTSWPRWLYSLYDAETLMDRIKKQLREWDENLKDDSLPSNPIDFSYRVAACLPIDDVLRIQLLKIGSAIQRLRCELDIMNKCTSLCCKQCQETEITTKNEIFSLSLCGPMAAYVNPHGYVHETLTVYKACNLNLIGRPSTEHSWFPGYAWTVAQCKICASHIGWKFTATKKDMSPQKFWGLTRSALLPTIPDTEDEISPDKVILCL
# T1 sequence (Q16531 whole entry partner): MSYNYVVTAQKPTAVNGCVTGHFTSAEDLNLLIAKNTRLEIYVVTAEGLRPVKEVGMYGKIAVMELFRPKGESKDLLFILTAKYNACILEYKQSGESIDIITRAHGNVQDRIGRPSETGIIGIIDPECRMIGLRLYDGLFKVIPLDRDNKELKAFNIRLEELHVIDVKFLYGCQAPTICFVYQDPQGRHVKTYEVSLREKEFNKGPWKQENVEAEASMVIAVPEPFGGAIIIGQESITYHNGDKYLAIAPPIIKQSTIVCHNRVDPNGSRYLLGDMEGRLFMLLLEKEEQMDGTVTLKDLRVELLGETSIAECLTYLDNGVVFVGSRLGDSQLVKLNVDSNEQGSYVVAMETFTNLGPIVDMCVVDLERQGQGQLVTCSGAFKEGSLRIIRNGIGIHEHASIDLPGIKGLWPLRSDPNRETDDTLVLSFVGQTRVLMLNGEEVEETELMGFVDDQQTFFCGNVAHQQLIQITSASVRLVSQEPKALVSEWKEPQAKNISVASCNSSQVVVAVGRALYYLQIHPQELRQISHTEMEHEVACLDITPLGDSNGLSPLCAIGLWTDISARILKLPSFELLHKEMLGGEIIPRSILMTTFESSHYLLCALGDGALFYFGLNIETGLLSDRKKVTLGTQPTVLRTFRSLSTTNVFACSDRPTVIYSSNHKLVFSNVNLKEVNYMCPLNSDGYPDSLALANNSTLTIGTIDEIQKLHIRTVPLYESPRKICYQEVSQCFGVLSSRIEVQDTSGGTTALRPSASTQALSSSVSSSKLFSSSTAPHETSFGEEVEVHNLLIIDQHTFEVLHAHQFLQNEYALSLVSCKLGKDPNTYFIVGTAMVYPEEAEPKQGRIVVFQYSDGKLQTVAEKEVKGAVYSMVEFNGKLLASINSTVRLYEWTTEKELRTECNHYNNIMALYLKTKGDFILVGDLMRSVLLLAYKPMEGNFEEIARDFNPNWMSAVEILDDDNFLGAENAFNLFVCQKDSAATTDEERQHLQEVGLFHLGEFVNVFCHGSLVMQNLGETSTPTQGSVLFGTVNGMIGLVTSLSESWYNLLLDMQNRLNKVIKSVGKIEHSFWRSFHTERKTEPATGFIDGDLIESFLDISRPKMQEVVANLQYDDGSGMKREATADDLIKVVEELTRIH
# Procedure: Most antibodies were purchased from Cell Signaling Technology, including IKZF1 (#9034S), IKZF3(#15103S). GAPDH antibody was purchased from Abcam Company.
# Tumor cells were plated in a 24-well plate at a cell seeding density of 3×10^5 cells/mL, with 1 mL culture media per well. After 24 h, the cells were treated with different concentrations of the compounds of the present disclosure. After 16 hours, the cells were collected, and washed with PBS. The supernatant was discarded, and the cells were placed on ice, and treated with RIPA protein lysate containing Halt protease and phosphatase inhibitor. The lysate was centrifuged at 10000 RPM at 4° C. for 10 minutes, and the supernatant was collected. An equal amount of proteins were loaded in 4X SDS sample solution, denatured at 95° C. for 5 minutes, and then freezed to -20° C. or directly subjected to protein electrophoresis (4-15% gradient gel, Bio-rad). […]
# DC50 value (the drug concentration required for degrading proteins by 50%, abbreviated as DC50) reads method: comparing the gray values of the Western blotting bands for the drug treatment with the gray values of the Western blotting band for the DMSO control, and reading the drug concentration range corresponding to the gray value of the Western blotting bands for the drug treatment which is equal to half of the gray value of the Western blotting band for the DMSO control. […]
# TNF-α = TNF-α inhibition in LPS-stimulated PBMC cells (ELISA); details: LPS 1 µg/ml, 18-20 h
# From the text: (§1) The tested cell line used were: Multiple myeloma cell line MM.1S, Mino (human mantle cell lymphoma cell), SR (anaplastic large cell lymphoma cell), PBMC (peripheral blood mononuclear cell), which were purchased from ATCC (American type Culture Collection). The medium was RPMI1640 supplemented with 10% FBS (fetal calf serum) and 1% Penicillin-Streptomycin. The cells used were identified as correct cells by STR cells, and were negative for mycoplasma through routine inspections.
# PBMC cells were cultured at 37° C. in 5% CO2 atmosphere, and then seeded in 96-well plates at 1×10^6 cells/well. […] Cells were pretreated with compounds and vehicle control (DMSO) for 1 h, then stimulated with lipopolysaccharide (LPS; 1 µg/ml), and continually cultured for 18-20 h. Then, the supernatant was collected, and tested for TNF-α level by ELISA kit. IC50 was then calculated by Graphpad Prism 7.0.
# [1] = test system: Mino (human mantle cell lymphoma cell); assay: Cell viability / proliferation inhibition IC50 in Mino lymphoma cells, 72 h, WST; details: Mino cell line, WST reagent
# From the text: as §1
# (§2) IC50 values of the compounds of the present disclosure (including examples 1-11 compounds) were measured using Cell Titer Blue, Cell Titer GLO, or WST reagent from Promega Company. Assay details are as follows: Cells were seeded in 100 µL RPMI1640 complete medium containing serum at a density of 15,000 cells/well. After 24 h, the inoculated cells were treated with diluted commercial inhibitor and the compounds of the present disclosure to be tested after serial dilution. After the cells were treated with the compounds of the present disclosure to be tested (including examples 1-11 compounds) for 72 h, cell viability was determined after adding the cell viability detection kit listed above according to the reagent operating instructions. The negative control was DMSO, and the positive control was a commercial inhibitor, both of which were used to treat the cells through the same method as that of the compounds of the present disclosure. The growth inhibition of the compounds of the present disclosure on cells was plotted by Prism Graphpad software, and the IC50 values of the compounds of the present disclosure were calculated therefrom.
# (§3) We tested the activities of the compounds of the present invention (including the compounds in Table 1 and Examples 1-11 compounds) in MM.1S cell, mantle cell lymphoma Mino cells, and anaplastic large cell lymphoma SR cells through a dose-dependent manner. These cells overexpressed IKZF⅓ and was not sensitive to existing immunomodulatory drugs. The cells were treated with the compounds of the present invention at 10 different successively decreasing concentrations (starting at the highest concentration of 10 µM; 5-fold serial dilutions) for 72 h, and then the cell viability determination was performed in accordance with CCK-8 reagent operating instructions. The experiment was repeated more than three times.
# [2] = test system: SR (anaplastic large cell lymphoma cell); assay: Cell viability / proliferation inhibition IC50 in SR lymphoma cells, 72 h, WST; details: SR cell line, WST reagent
# From the text: as §1, §2
# We tested the activities of the compounds of the present invention (including the compounds in Table 1 and Examples 1-11 compounds) in MM.1S cell, mantle cell lymphoma Mino cells, and anaplastic large cell lymphoma SR cells through a dose-dependent manner. These cells overexpressed IKZF⅓ and was not sensitive to existing immunomodulatory drugs. […]
# [3] = test system: Multiple myeloma cell line MM.1S; assay: Cell viability / proliferation inhibition IC50 in MM.1S cells, 72 h; details: Homo sapiens, MM1.S, 72 h treatment
# From the text: as §1, §2, §3
SMILES,IC50 (TNF-α) [nM],IC50 [3] [nM],other results
"O=C1CCC(N2Cc3c(SCc4nc(CNC56CC7CC(CC(C7)C5)C6)cs4)cccc3C2=O)C(=O)N1 (centres unmarked) [SIAIS287129, 3-(4-(((4-((adamantan-1-ylamino)methyl)thiazol-2-yl)methyl)thio)-1-oxoisoindolin-2-yl)piperidine-2,6-dione]",–,0.181,"IC50 ([1]; Homo sapiens, MINO): 2.59 nM; IC50 ([2]; Homo sapiens, SR): 4.02 nM"
"O=C1CCC(N2C(=O)c3cccc(NCc4ccc(CNC56CC7CC(CC(C7)C5)C6)cn4)c3C2=O)C(=O)N1 (centres unmarked) [SIAIS355067, 4-(((5-((adamantan-1-ylamino)methyl)pyridin-2-yl)methyl)amino)-2-(2,6-dioxopiperidin-3-yl)isoindoline-1,3-dione]",< 5,4.46 ± 0.18,–
"O=C1CCC(N2Cc3c(SCc4csc(C(=O)NC56CC7CC(CC5C7)C6)n4)cccc3C2=O)C(=O)N1 (centres unmarked) [SIAIS355073, 4-(((2-(2,6-dioxopiperidin-3-yl)-1-oxoisoindolin-4-yl)thio)methyl)-N-(octahydro-2,5-methanopentalen-6a-yl)thiazole-2-carboxamide]",–,0.51 ± 0.25,–
"Nc1cccc2c1CN(C1CCC(=O)NC1=O)C2=O (centres unmarked) [Lenalidomide, reference compound]",10 to 100,–,–
"O=C1CCC(N2Cc3c(SCCn4cc(CN[C@]56CC7CC(C[C@@H](C7)C5)C6)nn4)cccc3C2=O)C(=O)N1 (some centres unmarked) [SIAIS287097, 3-(4-((2-(4-((adamantan-1-ylamino)methyl)-1H-1,2,3-triazol-1-yl)ethyl)thio)-1-oxoisoindolin-2-yl)piperidine-2,6-dione]",< 5,–,–
"Nc1cccc2c1C(=O)N(C1CCC(=O)NC1=O)C2=O (centres unmarked) [Pomalidomide, reference compound]",–,–,"IC50 ([1]; Homo sapiens, MINO): 48 nM"

# Further lines, with some results ahead:
IC50 (TNF-α) [nM],IC50 [3] [nM],SMILES,other results
< 1,0.003,"O=C1CCC(N2Cc3c(SCc4cc5cc(CNC67CC8CC(CC(C8)C6)C7)ccc5o4)cccc3C2=O)C(=O)N1 (centres unmarked) [SIAIS287116, 3-(4-(((5-((adamantan-1-ylamino)methyl)benzofuran-2-yl)methyl)thio)-1-oxoisoindolin-2-yl)piperidine-2,6-dione]","concentration at which IKZF3 protein is significantly degraded (IKZF3): less than 0.01 nM; IC50 ([1]; Homo sapiens, MINO): ~0.39 nM; IC50 [1]: 0.387 nM; IC50 ([2]; Homo sapiens, SR): ~0.5 nM; IC50 [2]: 0.454 nM"
–,0.16 ± 0.02,"O=C1CCC(N2Cc3c(SCc4nc(CN[C@H]5[C@H]6CC7CC(C6)C[C@@H]5C7)cs4)cccc3C2=O)C(=O)N1 (some centres unmarked) [SIAIS313185, 3-(4-(((4-((adamantan-2-ylamino)methyl)thiazol-2-yl)methyl)thio)-1-oxoisoindolin-2-yl)piperidine-2,6-dione]",–
–,0.09 ± 0.02,"O=C1CCC(N2Cc3c(SCc4ccc(CNC56CC7CC(CC(C7)C5)C6)o4)cccc3C2=O)C(=O)N1 (centres unmarked) [SIAIS313118, 3-(4-(((5-((adamantan-1-ylamino)methyl)furan-2-yl)methyl)thio)-1-oxoisoindolin-2-yl)piperidine-2,6-dione]",–
< 1,0.02,"O=C1CCC(N2Cc3c(SCc4cc5cc(C(=O)NC67CC8CC(CC(C8)C6)C7)ccc5s4)cccc3C2=O)C(=O)N1 (centres unmarked) [SIAIS338091, N-(adamantan-1-yl)-2-(((2-(2,6-dioxopiperidin-3-yl)-1-oxoisoindolin-4-yl)thio)methyl)benzo[b]thiophene-5-carboxamide]",–
< 1,0.13 ± 0.03,"O=C1CCC(N2Cc3c(SCc4csc(CNC56CC7CC(CC(C7)C5)C6)n4)cccc3C2=O)C(=O)N1 (centres unmarked) [SIAIS313160, 3-(4-(((2-((adamantan-1-ylamino)methyl)thiazol-4-yl)methyl)thio)-1-oxoisoindolin-2-yl)piperidine-2,6-dione]",–
–,0.06 ± 0.04,"O=C1CCC(N2Cc3c(SCc4ccc5cc(CN[C@]67CC8CC(C[C@@H](C8)C6)C7)ccc5n4)cccc3C2=O)C(=O)N1 (some centres unmarked) [SIAIS338048, 3-(4-(((6-((adamantan-1-ylamino)methyl)quinolin-2-yl)methyl)thio)-1-oxoisoindolin-2-yl)piperidine-2,6-dione]",–
